Reference: paper PMC12655351, “Synthesis and Anticancer Activity Evaluation of New 5-((5-Nitrofuran-2-yl)allylidene)-2-thioxo-4-thiazolidinones” (Pharmaceuticals, 2025)

How the values were obtained:
TK-10 = details: TK-10, 48 h
PC-3 = assay: cells; details: Homo sapiens, PC-3, 48 h
SK-MEL-28 = assay: cells; details: Homo sapiens, SK-MEL-28, 48 h; for CC50: read-out: LC50, SK-MEL-28, 48 h
Melanoma = Melanoma subpanel
[1] = system: Non-small cell lung cancer; details: Non-small cell lung cancer subpanel
UACC-257 = details: UACC-257, 48 h
T-47D [2] = details: 48 h
Ovarian cancer = Ovarian cancer subpanel
Renal Cancer [3] = details: Renal Cancer subpanel
CCRF-CEM = assay: cells; details: Homo sapiens, 48 h
BT-549 = assay: cells; details: Homo sapiens, BT-549, 48 h; for CC50: read-out: LC50, BT-549, 48 h
MDA-MB-468 = assay: NCI-60 SRB screen; details: MDA-MB-468, 48 h; for GI50 / CC50: Homo sapiens; for CC50: read-out: LC50, MDA-MB-468, 48 h
SN12C = assay: cells; details: Homo sapiens, 48 h; for CC50: read-out: LC50, SN12C, 48 h
MCF7 = assay: NCI-60 SRB screen; details: MCF7, 48 h; for GI50: Homo sapiens
HT29 = details: HT29, 48 h
UO-31 [4] = details: UO-31, 48 h
UO-31 [5] = assay: cells; details: Homo sapiens, UO-31, 48 h; for CC50: read-out: LC50, UO-31, 48 h
CAKI-1 = assay: cells; details: Homo sapiens, CAKI-1, 48 h
HOP-92 = assay: NCI-60 SRB screen; details: HOP-92, 48 h; for GI50 / CC50: Homo sapiens; for CC50: read-out: LC50, HOP-92, 48 h
SF-295 = assay: NCI-60 SRB screen; details: SF-295, 48 h; for GI50 / CC50: Homo sapiens; for CC50: read-out: LC50, SF-295, 48 h
CNS cancer = assay: cells; details: Homo sapiens; for GI50: read-out: MG_MID GI50; for CC50: read-out: MG_MID LC50
SR [6] = details: 48 h
T-47D [7] = assay: cells; details: Homo sapiens, T47D, 48 h; for GI50: T-47D
MALME-3M = assay: NCI-60 SRB screen; details: 48 h; for GI50 / CC50: Homo sapiens, Malme-3M; for CC50: read-out: LC50, MALME-3M, 48 h; for TGI: MALME-3M
K-562 [8] = assay: cells; details: Homo sapiens, K562, 48 h; for GI50: K-562, 48 h; for CC50: read-out: LC50
786-0 = details: 786-0, 48 h
HL-60(TB) = assay: NCI-60 SRB screen; details: for TGI / GI50: HL-60(TB), 48 h
UACC-62 = assay: NCI-60 SRB screen; details: for GI50 / CC50: Homo sapiens; for GI50 / CC50 / TGI: UACC-62, 48 h; for CC50: read-out: LC50, UACC-62, 48 h
K-562 [9] = details: K-562, 48 h
NCI/ADR-RES = assay: cells; details: Homo sapiens, 48 h; for CC50: read-out: LC50, NCI/ADR-RES, 48 h
MOLT-4 = details: MOLT-4, 48 h
Renal Cancer [10] = assay: cells; details: Homo sapiens; for GI50: read-out: MG_MID GI50; for CC50: read-out: MG_MID LC50
HCC-2998 = details: for TGI: HCC-2998, 48 h
SR [11] = assay: cells; details: Homo sapiens, 48 h
SW-620 = assay: NCI-60 SRB screen; details: SW-620, 48 h
OVCAR-5 = assay: NCI-60 SRB screen; details: OVCAR-5, 48 h; for GI50: Homo sapiens
SK-MEL-5 = details: for growth GP: SK-MEL-5, 10 μM, 48 h; for TGI: SK-MEL-5, 48 h
SF-268 [12] = assay: cells; details: Homo sapiens, SF-268, 48 h; for CC50: read-out: LC50, SF-268, 48 h
SF-268 [13] = details: SF-268, 48 h

`O=C(O)CCN1C(=O)/C(=C/C=C/c2ccc([N+](=O)[O-])o2)SC1=S` [12b, 3-((Z)-5-((E)-3-(5-Nitrofuran-2-yl)allylidene)-4-oxo-2-thioxothiazolidin-3-yl)propanoic acid] gave a TGI (TK-10) of 3.81 µM, a GI50 (PC-3) of 2.48 µM and a GI50 (SK-MEL-28) of 1.57 µM. For the same molecule, the CC50 (SK-MEL-28) was 5.93 µM, the “MG_MID TGI” value (Melanoma) was 2.60 µM and the “MG_MID TGI” value [1] was 7.75 µM. For the same molecule, the TGI (UACC-257) was 4.08 µM, the TGI (T-47D [2]) was 3.55 µM and the “MG_MID TGI” value (Ovarian cancer) was 5.84 µM. For the same molecule, the “MG_MID TGI” value (Renal Cancer [3]) was 6.01 µM, the GI50 (CCRF-CEM) was 0.25 µM and the GI50 (BT-549) was 1.35 µM. The CC50 (BT-549) was 6.13 µM, the GI50 (MDA-MB-468) was 0.66 µM and the CC50 (MDA-MB-468) was 5.71 µM. The TGI (MDA-MB-468) was 2.14 µM, the GI50 (SN12C) was 1.07 µM and the CC50 (SN12C) was 5.04 µM. The GI50 (MCF7) was 0.46 µM, the TGI (MCF7) was 2.10 µM and the TGI (HT29) was 12.5 µM. The TGI (UO-31 [4]) was 2.25 µM, the GI50 (UO-31 [5]) was 1.05 µM and the CC50 (UO-31 [5]) was 4.84 µM. For the same molecule, the GI50 (CAKI-1) was 1.42 µM, the TGI (HOP-92) was 3.50 µM and the GI50 (HOP-92) was 1.83 µM. The CC50 (HOP-92) was 6.72 µM, the GI50 (SF-295) was 2.17 µM and the CC50 (SF-295) was 16.3 µM. The TGI (SF-295) was 5.21 µM, the GI50 (CNS cancer) was 1.62 µM and the CC50 (CNS cancer) was 12.3 µM. For the same molecule, the TGI (SR [6]) was 1.15 µM, the GI50 (T-47D [7]) was 0.94 µM and the CC50 (T-47D [7]; read-out: LC50) was over 100 µM. It also gave a GI50 (MALME-3M) of 0.5 µM, a CC50 (MALME-3M) of 4.25 µM and a TGI (MALME-3M) of 1.66 µM. For the same molecule, the GI50 (K-562 [8]) was 0.34 µM, the CC50 (K-562 [8]) was over 100 µM and the TGI (786-0) was 3.54 µM. For the same molecule, the TGI (HL-60(TB)) was 3.30 µM, the GI50 (HL-60(TB); Homo sapiens, HL-60, 48 h) was 1.28 µM and the GI50 (UACC-62) was 0.65 µM. For the same molecule, the CC50 (UACC-62) was 4.16 µM, the “growth GP” value (UACC-62; UACC-62, 10 μM, 48 h) was -97.43% and the TGI (UACC-62) was 2.00 µM. It also gave a TGI (K-562 [9]) of 2.73 µM, a GI50 (NCI/ADR-RES) of 1.21 µM and a CC50 (NCI/ADR-RES) of 24.8 µM. The TGI (MOLT-4) was 2.56 µM, the GI50 (Renal Cancer [10]) was 3.05 µM and the CC50 (Renal Cancer [10]) was 11.9 µM. The “growth GP” value (HCC-2998; HCC-2998, 10 μM, 48 h) was -95.81%, the TGI (HCC-2998) was 9.26 µM and the GI50 (SR [11]) was 0.3 µM. The TGI (SW-620) was 19.8 µM, the GI50 (OVCAR-5) was 1.99 µM and the TGI (OVCAR-5) was 3.70 µM. For the same molecule, the “growth GP” value (SK-MEL-5) was -97.62%, the TGI (SK-MEL-5) was 2.24 µM and the GI50 (SF-268 [12]) was 1.44 µM. It also gave a CC50 (SF-268 [12]) of 7.02 µM and a TGI (SF-268 [13]) of 3.18 µM.
With `CCCCC(C(=O)O)N1C(=O)/C(=C/C=C/c2ccc([N+](=O)[O-])o2)SC1=S` (stereo not shown) [6b, 2-((Z)-5-((E)-3-(5-nitrofuran-2-yl)allylidene)-4-oxo-2-thioxothiazolidin-3-yl)hexanoic acid] the TGI (TK-10) was 8.15 µM, the GI50 (PC-3) was 3.05 µM and the GI50 (SK-MEL-28) was 1.91 µM. The CC50 (SK-MEL-28) was 7.29 µM, the “MG_MID TGI” value (Melanoma) was 3.59 µM and the “MG_MID TGI” value [1] was 6.45 µM. The TGI (UACC-257) was 4.31 µM, the TGI (T-47D [2]) was 4.03 µM and the “MG_MID TGI” value (Ovarian cancer) was 9.10 µM. For the same molecule, the “MG_MID TGI” value (Renal Cancer [3]) was 5.37 µM, the GI50 (CCRF-CEM) was 3.1 µM and the GI50 (BT-549) was 1.49 µM. For the same molecule, the CC50 (BT-549) was 6.55 µM, the GI50 (MDA-MB-468) was 1.63 µM and the CC50 (MDA-MB-468) was 6.09 µM. The TGI (MDA-MB-468) was 3.15 µM, the GI50 (SN12C) was 1.75 µM and the CC50 (SN12C) was 9.18 µM. The GI50 (MCF7) was 1.64 µM, the TGI (MCF7) was 4.11 µM and the TGI (HT29) was 3.71 µM. For the same molecule, the TGI (UO-31 [4]) was 3.29 µM, the GI50 (UO-31 [5]) was 1.67 µM and the CC50 (UO-31 [5]) was 6.5 µM. The GI50 (CAKI-1) was 1.67 µM, the TGI (HOP-92) was 9.85 µM and the GI50 (HOP-92) was 3.57 µM. It also gave a CC50 (HOP-92) of 42.2 µM, a GI50 (SF-295) of 2.23 µM and a CC50 (SF-295) of 13.5 µM. It also gave a TGI (SF-295) of 4.99 µM, a GI50 (CNS cancer) of 2.01 µM and a CC50 (CNS cancer) of 12 µM. For the same molecule, the TGI (SR [6]) was 8.66 µM, the GI50 (T-47D [7]) was 1.75 µM and the GI50 (MALME-3M) was 2.21 µM. For the same molecule, the CC50 (MALME-3M) was 9.02 µM, the TGI (MALME-3M) was 4.47 µM and the GI50 (K-562 [8]) was 2.6 µM. The CC50 (K-562 [8]) was over 100 µM, the TGI (786-0) was 9.30 µM and the TGI (HL-60(TB)) was 10.1 µM. For the same molecule, the GI50 (HL-60(TB); Homo sapiens, HL-60, 48 h) was 2.68 µM, the CC50 (HL-60(TB); Homo sapiens, HL-60, 48 h, read-out: LC50, HL-60(TB), 48 h) was over 100 µM and the GI50 (UACC-62) was 1.38 µM. It also gave a CC50 (UACC-62) of 5.61 µM, a TGI (UACC-62) of 2.78 µM and a TGI (K-562 [9]) of 10.5 µM. For the same molecule, the GI50 (NCI/ADR-RES) was 2.24 µM, the CC50 (NCI/ADR-RES) was 29.3 µM and the TGI (MOLT-4) was 13.5 µM. The GI50 (Renal Cancer [10]) was 2.24 µM, the CC50 (Renal Cancer [10]) was 17.7 µM and the TGI (HCC-2998) was 3.34 µM. The GI50 (SR [11]) was 1.98 µM, the CC50 (SR [11]; read-out: LC50) was over 100 µM and the GI50 (SW-620; Homo sapiens) was 1.8 µM. It also gave a TGI (SW-620) of 3.38 µM, a GI50 (OVCAR-5) of 2.08 µM and a TGI (OVCAR-5) of 4.62 µM. For the same molecule, the “growth GP” value (SK-MEL-5) was -99.30%, the TGI (SK-MEL-5) was 2.77 µM and the GI50 (SF-268 [12]) was 2.15 µM. For the same molecule, the CC50 (SF-268 [12]) was 16.8 µM and the TGI (SF-268 [13]) was 5.24 µM.
